Test results: patent US4322428A, “2(4-Fluorophenyl)-4,5,-bis(4-methoxyphenyl)thiazole and method of use” (Eli Lilly and Company, priority 1980, dated 1982)

The molecules below were run on writhing in Cox standard strain albino male mice (assay: mouse-writhing test (analgesic), acetic acid-induced writhing). Settings: oral (p.o.), corn oil-acacia emulsion, writhing induced by intraperitoneal 0.55% (55 mg/kg) acetic acid, read-out: ED50 (effective dosage needed to inhibit 50% of the writhing).
Type: in vivo
Method: An intraperitoneal injection of 0.55% (55 mg/kg.) acetic acid induces writhing in the mice, which is characterized by contraction of the abdominal musculature, extension of the hindlegs, and rotation of the trunk. The compounds were administered in a corn oil-acacia emulsion. The number of writhes is counted for both the control and treated animals and the percent inhibition computed as follows: [formula]
All dosages were given orally (p.o.) and are expressed in mg/kg. The term "ED50 " means an effective dosage needed to inhibit 50% of the writhing.

Row | SMILES | ED50 [mg/kg]
1 | COc1ccc(-c2nc(-c3ccc(Br)cc3)sc2-c2ccc(OC)cc2)cc1 [2-(4-Bromophenyl)-4,5-bis(4-methoxyphenyl)thiazole] | 1.46
2 | COc1ccc(-c2nc(-c3ccc(Cl)cc3)sc2-c2ccc(OC)cc2)cc1 [2-(4-Chlorophenyl)-4,5-bis(4-methoxyphenyl)thiazole] | 3.75
3 | COc1ccc(-c2nc(-c3ccc(F)cc3)sc2-c2ccc(OC)cc2)cc1 [2-(4-Fluorophenyl)-4,5-bis(4-methoxyphenyl)thiazole] | 0.82
4 | COc1ccc(-c2nc(-c3ccccc3)sc2-c2ccc(OC)cc2)cc1 [2-Phenyl-4,5-bis(4-methoxyphenyl)thiazole] | 2.3
